Test results reported in patent US20260132125A1, “PESTICIDALLY ACTIVE FUSED BICYCLIC HETEROAROMATIC COMPOUNDS” (priority 2022, published 2026).

What was measured:
Format in all cases: in vivo
Spodoptera littoralis = assay: Example B6: activity against Spodoptera littoralis (Egyptian cotton leaf worm), cotton leaf discs; details: foliar; for percent control (mortality, anti-feedant effect or growth inhibition) at 200 ppm: 72 h, L1 larvae, 3 days after infestation, read-out: control (at least one of mortality, anti-feedant effect, growth inhibition)
Experimental: Cotton leaf discs were placed onto agar in 24-well microtiter plates and sprayed with aqueous test solutions prepared from 10′000 ppm DMSO stock solutions. After drying the leaf discs were infested with five L1 larvae. The samples were assessed for mortality, anti-feeding effect, and growth inhibition in comparison to untreated samples 3 days after infestation. Control of Spodoptera littoralis by a test sample is given when at least one of the categories mortality, anti-feedant effect, and growth inhibition is higher than the untreated sample.

Myzus persicae = assay: Example B4: activity against Myzus persicae (green peach aphid), intrinsic activity; details: 120 h, test rate 12 ppm, 5 days after infestation
Experimental: Test compounds prepared from 10′000 ppm DMSO stock solutions were applied by pipette into 24-well microtiter plates and mixed with sucrose solution. The plates were closed with a stretched Parafilm. A plastic stencil with 24 holes was placed onto the plate and infested pea seedlings were placed directly on the Parafilm. The infested plate was closed with a gel blotting paper and another plastic stencil and then turned upside down. The samples were assessed for mortality 5 days after infestation.

Chilo suppressalis = assay: Example B1: activity against Chilo suppressalis (striped rice stemborer), artificial diet; details: 144 h, 200 ppm, L2 larvae, 6 days after infestation, read-out: control (at least one of mortality, anti-feedant effect, growth inhibition)
Experimental: 24-well microtiter plates with artificial diet were treated with aqueous test solutions prepared from 10′000 ppm DMSO stock solutions by pipetting. After drying, the plates were infested with L2 larvae (6-8 per well). The samples were assessed for mortality, anti-feeding effect, and growth inhibition in comparison to untreated samples 6 days after infestation. Control of Chilo suppressalis by a test sample is given when at least one of the categories mortality, anti-feedant effect, and growth inhibition is higher than the untreated sample.

Pseudoplusia includens = assay: Example B9: Pseudoplusia includens (soybean looper), larvicide, feeding/contact, soybean plants; details: Chrysodeixis includens, 120 h; 50 ppm; L2 larvae; 5 days after infestation; read-out: effect in at least one of the two categories (mortality or growth inhibition)
Experimental: Soybean plants were treated in a spray chamber, cut off and placed into petri dishes containing wet filter paper. 1d after application leaves were infested with 5 L2 larvae and covered with a fabric filter and plastic lids. 5 days after infestation the samples were assessed for mortality and growth inhibition. The following compounds gave an effect of at least 80% in at least one of the two categories (mortality or growth inhibition) at an application rate of 50 ppm: […]

Plutella xylostella = assay: Example B5: activity against Plutella xylostella (diamond back moth), artificial diet, eggs; details: 192 h, 8 days after infestation, read-out: effect in at least one of the two categories (mortality or growth inhibition)
Experimental: 24-well microtiter plates with artificial diet were treated with aqueous test solutions prepared from 10′000 ppm DMSO stock solutions by pipetting. After drying, Plutella eggs were pipetted through a plastic stencil onto a gel blotting paper and the plate was closed with it. The samples were assessed for mortality and growth inhibition in comparison to untreated samples 8 days after infestation. The following compounds gave an effect of at least 80% in at least one of the two categories (mortality or growth inhibition) at an application rate of 200 ppm: P1, P2, P3, P4, P5, P6, P7, P8, P9, P10, P11, P12, P13, P14, P15, P16, P17, P18, P19, P20, P21, P22, P23, P24, P25, P26, P27, P28, P29, P30, P31, P32, P33, P34, P35, P36, P37, P38, P39, P40, P41, P42, P43, P44, P45, P46, P47, P48, P49, P50, P51, P52, P53, P54, P55, P57, P58, P59, P60, P61, P62, P63, P64, P65, P66, P67, P69, P70, P71, P72, P73, P74, P75, P77, P78, P81, P82, P83.

Diabrotica balteata = assay: Example B2: activity against Diabrotica balteata (corn root worm), maize sprouts; details: 96 h, L2 larvae, 4 days after infestation, read-out: effect in at least one of the two categories (mortality or growth inhibition)
Experimental: Maize sprouts placed onto an agar layer in 24-well microtiter plates were treated with aqueous test solutions prepared from 10′000 ppm DMSO stock solutions by spraying. After drying, the plates were infested with L2 larvae (6 to 10 per well). The samples were assessed for mortality and growth inhibition in comparison to untreated samples 4 days after infestation. The following compounds gave an effect of at least 80% in at least one of the two categories (mortality or growth inhibition) at an application rate of 200 ppm: P1, P2, P3, P4, P5, P7, P8, P9, P10, P11, P12, P13, P14, P15, P16, P17, P18, P19, P20, P21, P22, P23, P24, P25, P26, P27, P28, P29, P30, P31, P33, P34, P35, P36, P37, P38, P39, P40, P41, P42, P43, P45, P46, P47, P48, P49, P50, P51, P52, P53, P55, P57, P58, P59, P60, P61, P62, P63, P64, P65, P66, P67, P69, P71, P75, P81, P82, P83.

## C[C@H](Nc1ncnc2c(C(F)(F)F)cc(Cl)cc12)c1ncnn1-c1ncc(C(N)=O)s1 [Compound P8]
Spodoptera littoralis
  percent control (mortality, anti-feedant effect or growth inhibition) at 200 ppm: ≥ 80%
Myzus persicae
  mortality at 12 ppm: ≥ 80%
Chilo suppressalis
  percent control (mortality, anti-feedant effect or growth inhibition) at 200 ppm: ≥ 80%
Pseudoplusia includens
  percent effect (mortality or growth inhibition) at 50 ppm: ≥ 80%
Plutella xylostella
  percent effect (mortality or growth inhibition) at 200 ppm: ≥ 80%
Diabrotica balteata
  percent effect (mortality or growth inhibition) at 200 ppm: ≥ 80%

## C[C@H](Nc1ncnc2c(Cl)cc(I)cc12)c1ncnn1-c1ncc(C(N)=O)s1 [Compound P37, 2-[5-[(1S)-1-[(8-chloro-6-iodo-quinazolin-4-yl)amino]ethyl]-1,2,4-triazol-1-yl]thiazole-5-carboxamide]
Spodoptera littoralis; 50 ppm
  mortality at 50 ppm: 100%
Spodoptera littoralis
  percent control (mortality, anti-feedant effect or growth inhibition) at 200 ppm: ≥ 80%
Myzus persicae
  mortality at 12 ppm: ≥ 80%
Chilo suppressalis
  percent control (mortality, anti-feedant effect or growth inhibition) at 200 ppm: ≥ 80%
Plutella xylostella
  percent effect (mortality or growth inhibition) at 200 ppm: ≥ 80%
Diabrotica balteata
  percent effect (mortality or growth inhibition) at 200 ppm: ≥ 80%

## C[C@H](Nc1ncnc2c(C(F)(F)F)cc(Cl)cc12)c1ncnn1-c1cc(C(=O)NCCC#N)ncn1 [Compound P39]
Spodoptera littoralis
  percent control (mortality, anti-feedant effect or growth inhibition) at 200 ppm: ≥ 80%
Myzus persicae
  mortality at 12 ppm: ≥ 80%
Chilo suppressalis
  percent control (mortality, anti-feedant effect or growth inhibition) at 200 ppm: ≥ 80%
Plutella xylostella
  percent effect (mortality or growth inhibition) at 200 ppm: ≥ 80%
Diabrotica balteata
  percent effect (mortality or growth inhibition) at 200 ppm: ≥ 80%

## C[C@H](Nc1ncnc2c(I)cc(Cl)cc12)c1ncnn1-c1cc(C#N)ncn1 [Compound P40, 6-[5-[(1S)-1-[(6-chloro-8-iodo-quinazolin-4-yl)amino]ethyl]-1,2,4-triazol-1-yl]pyrimidine-4-carbonitrile]
Spodoptera littoralis
  percent control (mortality, anti-feedant effect or growth inhibition) at 200 ppm: ≥ 80%
Myzus persicae
  mortality at 12 ppm: ≥ 80%
Chilo suppressalis
  percent control (mortality, anti-feedant effect or growth inhibition) at 200 ppm: ≥ 80%
Plutella xylostella
  percent effect (mortality or growth inhibition) at 200 ppm: ≥ 80%
Diabrotica balteata
  percent effect (mortality or growth inhibition) at 200 ppm: ≥ 80%

## C[C@H](Nc1ncnc2c(C(F)(F)F)cc(Cl)cc12)c1ncnn1-c1cc(C(=O)NC(C)(C)C#N)ncn1 [Compound P43, 6-[5-[(1S)-1-[[6-chloro-8-(trifluoromethyl)quinazolin-4-yl]amino]ethyl]-1,2,4-triazol-1-yl]-N-(1-cyano-1-methyl-ethyl)pyrimidine-4-carboxamide]
Spodoptera littoralis
  percent control (mortality, anti-feedant effect or growth inhibition) at 200 ppm: ≥ 80%
Myzus persicae
  mortality at 12 ppm: ≥ 80%
Chilo suppressalis
  percent control (mortality, anti-feedant effect or growth inhibition) at 200 ppm: ≥ 80%
Plutella xylostella
  percent effect (mortality or growth inhibition) at 200 ppm: ≥ 80%
Diabrotica balteata
  percent effect (mortality or growth inhibition) at 200 ppm: ≥ 80%

## C[C@H](Nc1ncnc2c(C(F)(F)F)cc(Cl)cc12)c1ncnn1-c1cc(C(=O)N(C)O)ncn1 [Compound P46, 6-[5-[(1S)-1-[[6-chloro-8-(trifluoromethyl)quinazolin-4-yl]amino]ethyl]-1,2,4-triazol-1-yl]-N-hydroxy-N-methyl-pyrimidine-4-carboxamide]
Spodoptera littoralis
  percent control (mortality, anti-feedant effect or growth inhibition) at 200 ppm: ≥ 80%
Myzus persicae
  mortality at 12 ppm: ≥ 80%
Chilo suppressalis
  percent control (mortality, anti-feedant effect or growth inhibition) at 200 ppm: ≥ 80%
Plutella xylostella
  percent effect (mortality or growth inhibition) at 200 ppm: ≥ 80%
Diabrotica balteata
  percent effect (mortality or growth inhibition) at 200 ppm: ≥ 80%

## C[C@@H](c1ncnn1-c1cc(C(N)=O)ncn1)N(C)c1ncnc2c(Cl)cc(I)cc12 [Compound P49, 6-[5-[(1S)-1-[(8-chloro-6-iodo-quinazolin-4-yl)-methyl-amino]ethyl]-1,2,4-triazol-1-yl]pyrimidine-4-carboxamide]
Spodoptera littoralis
  percent control (mortality, anti-feedant effect or growth inhibition) at 200 ppm: ≥ 80%
Myzus persicae
  mortality at 12 ppm: ≥ 80%
Chilo suppressalis
  percent control (mortality, anti-feedant effect or growth inhibition) at 200 ppm: ≥ 80%
Plutella xylostella
  percent effect (mortality or growth inhibition) at 200 ppm: ≥ 80%
Diabrotica balteata
  percent effect (mortality or growth inhibition) at 200 ppm: ≥ 80%

## C[C@H](Nc1ncnc2c(I)cc(Cl)cc12)c1ncnn1-c1cc(C(=O)N(C)C)ncn1 [Compound P65, 6-[5-[(1S)-1-[(6-chloro-8-iodo-quinazolin-4-yl)amino]ethyl]-1,2,4-triazol-1-yl]-N,N-dimethyl-pyrimidine-4-carboxamide]
Spodoptera littoralis
  percent control (mortality, anti-feedant effect or growth inhibition) at 200 ppm: ≥ 80%
Myzus persicae
  mortality at 12 ppm: ≥ 80%
Chilo suppressalis
  percent control (mortality, anti-feedant effect or growth inhibition) at 200 ppm: ≥ 80%
Plutella xylostella
  percent effect (mortality or growth inhibition) at 200 ppm: ≥ 80%
Diabrotica balteata
  percent effect (mortality or growth inhibition) at 200 ppm: ≥ 80%

## C[C@@H](c1ncnn1-c1cc(C(=O)N(C)C)ncn1)N(C)c1ncnc2c(I)cc(Cl)cc12 [Compound P66, 6-[5-[(1S)-1-[(6-chloro-8-iodo-quinazolin-4-yl)-methyl-amino]ethyl]-1,2,4-triazol-1-yl]-N,N-dimethyl-pyrimidine-4-carboxamide]
Spodoptera littoralis
  percent control (mortality, anti-feedant effect or growth inhibition) at 200 ppm: ≥ 80%
Myzus persicae
  mortality at 12 ppm: ≥ 80%
Chilo suppressalis
  percent control (mortality, anti-feedant effect or growth inhibition) at 200 ppm: ≥ 80%
Plutella xylostella
  percent effect (mortality or growth inhibition) at 200 ppm: ≥ 80%
Diabrotica balteata
  percent effect (mortality or growth inhibition) at 200 ppm: ≥ 80%

## C[C@H](Nc1ncnc2c(Cl)cc(C(F)(F)F)cc12)c1ncnn1-c1cnc(C(=O)NCC#N)cn1 [Compound P69, 5-[5-[(1S)-1-[[8-chloro-6-(trifluoromethyl)quinazolin-4-yl]amino]ethyl]-1,2,4-triazol-1-yl]-N-(cyanomethyl)pyrazine-2-carboxamide]
Spodoptera littoralis
  percent control (mortality, anti-feedant effect or growth inhibition) at 200 ppm: ≥ 80%
Myzus persicae
  mortality at 12 ppm: ≥ 80%
Chilo suppressalis
  percent control (mortality, anti-feedant effect or growth inhibition) at 200 ppm: ≥ 80%
Plutella xylostella
  percent effect (mortality or growth inhibition) at 200 ppm: ≥ 80%
Diabrotica balteata
  percent effect (mortality or growth inhibition) at 200 ppm: ≥ 80%

## C[C@@H](c1ncnn1-c1cc(C(=O)N(C)C2CC2)ncn1)N(C)c1ncnc2c(C(F)(F)F)cc(Cl)cc12 [Compound P81, 6-[5-[(1S)-1-[[6-chloro-8-(trifluoromethyl)quinazolin-4-yl]-methyl-amino]ethyl]-1,2,4-triazol-1-yl]-N-cyclopropyl-N-methyl-pyrimidine-4-carboxamide]
Spodoptera littoralis
  percent control (mortality, anti-feedant effect or growth inhibition) at 200 ppm: ≥ 80%
Myzus persicae
  mortality at 12 ppm: ≥ 80%
Chilo suppressalis
  percent control (mortality, anti-feedant effect or growth inhibition) at 200 ppm: ≥ 80%
Plutella xylostella
  percent effect (mortality or growth inhibition) at 200 ppm: ≥ 80%
Diabrotica balteata
  percent effect (mortality or growth inhibition) at 200 ppm: ≥ 80%

## C[C@@H](c1ncnn1-c1cc(C(=O)N(C)CC2CC2)ncn1)N(C)c1ncnc2c(C(F)(F)F)cc(Cl)cc12 [Compound P83, 6-[5-[(1S)-1-[[6-chloro-8-(trifluoromethyl)quinazolin-4-yl]-methyl-amino]ethyl]-1,2,4-triazol-1-yl]-N-(cyclopropylmethyl)-N-methyl-pyrimidine-4-carboxamide]
Spodoptera littoralis
  percent control (mortality, anti-feedant effect or growth inhibition) at 200 ppm: ≥ 80%
Myzus persicae
  mortality at 12 ppm: ≥ 80%
Chilo suppressalis
  percent control (mortality, anti-feedant effect or growth inhibition) at 200 ppm: ≥ 80%
Plutella xylostella
  percent effect (mortality or growth inhibition) at 200 ppm: ≥ 80%
Diabrotica balteata
  percent effect (mortality or growth inhibition) at 200 ppm: ≥ 80%
